US8895585B2, “Nicotinamide derivative or salt thereof” (FUJIFILM Corporation, priority 2010, dated 2014)

Tests used:
[1] = target: T1, glutathione S-transferase (GST)-fused full-length human Syk protein (Homo sapiens, UniProt P43405); assay: Syk enzyme assay; type: biochemical; conditions: Syk enzyme assay, Test Example 1; read-out: IC50 of Syk-inhibitory activity
T1 construct: (GST)-fused full-length human Syk protein; GST (glutathione S-transferase); purchased Carna Biosciences
Procedure, shortened: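 GST-tagged full-length human Syk (baculovirus) preincubated with compound 15 min at room temperature (pH 7.0, 10 mM MgCl2), then reacted 40 min with 0.4 μM biotinylated peptide substrate and 27 μM ATP (final). Phosphorylation read by HTRF (615/665 nm) after EDTA stop; IC50 reported.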

THP-1 cells = assay: TNFα generation assay; type: cell-based, human; conditions: Homo sapiens, THP-1, THP-1 cells; Table 22; read-out: IC50 in TNFα generation assay
Procedure, shortened: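 THP-1 cells differentiated to macrophage-like cells with 10 ng/ml IFN-γ for 2 days, preincubated with compound 30 min at room temperature, then cultured 7 h on plates coated with human IgG (10 μg/ml). Secreted TNFα measured by ELISA or AlphaLISA.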

Row | IC50 [1] | IC50 (THP-1 cells) | SMILES
1 | < 10 nM | < 65 nM | CCn1ncc2cc(Nc3nc(N[C@H](C4CC4)[C@H](C)N)c(F)cc3C(N)=O)ccc21 [Example 006-471, 6-(((1R,2S)-2-amino-1-cyclopropylpropyl)amino)-2-((1-ethyl-1H-indazol-5-yl)amino)-5-fluoronicotinamide]
2 | < 10 nM | 65 to 130 nM | NC(=O)c1cc(F)c(N[C@@H]2CCCC[C@@H]2N)nc1Nc1ccc2c(cnn2C2CC2)c1 [Example 006-472, 6-(((1R,2S)-2-aminocyclohexyl)amino)-2-((1-cyclopropyl-1H-indazol-5-yl)amino)-5-fluoronicotinamide]
3 | < 10 nM | < 65 nM | NC(=O)c1cc(F)c(N[C@@H]2CCCC[C@@H]2N)nc1Nc1ccc2cnn(C3CC3)c2c1 [Example 006-473, 6-(((1R,2S)-2-aminocyclohexyl)amino)-2-((1-cyclopropyl-1H-indazol-6-yl)amino)-5-fluoronicotinamide]
4 | < 10 nM | 65 to 130 nM | NC(=O)c1cc(F)c(N[C@@H]2CCCC[C@@H]2N)nc1Nc1cccc2c1cnn2C1CC1 [Example 006-474, 6-(((1R,2S)-2-aminocyclohexyl)amino)-2-((1-cyclopropyl-1H-indazol-4-yl)amino)-5-fluoronicotinamide]
5 | < 10 nM | 130 to 200 nM | NC(=O)c1cc(F)c(N[C@@H]2CCCC[C@@H]2N)nc1Nc1ccc2c(c1)c(F)nn2C1CC1 [Example 006-475, 6-(((1R,2S)-2-aminocyclohexyl)amino)-2-((1-cyclopropyl-3-fluoro-1H-indazol-5-yl)amino)-5-fluoronicotinamide]

More lines, now with the values behind:

Row | SMILES | IC50 [1] | IC50 (THP-1 cells)
6 | CCCc1nn(CC(F)F)c2ccc(Nc3nc(N[C@@H]4CCCC[C@@H]4N)c(F)cc3C(N)=O)cc12 [Example 006-460, 6-(((1R,2S)-2-aminocyclohexyl)amino)-2-((1-(2,2-difluoroethyl)-3-propyl-1H-indazol-5-yl)amino)-5-fluoronicotinamide] | < 10 nM | 65 to 130 nM
7 | CC(C)c1nn(C)c2ccc(Nc3nc(N[C@@H]4CCCC[C@@H]4N)c(F)cc3C(N)=O)cc12 [Example 006-461, 6-(((1R,2S)-2-aminocyclohexyl)amino)-5-fluoro-2-((3-isopropyl-1-methyl-1H-indazol-5-yl)amino)nicotinamide] | < 10 nM | 65 to 130 nM
8 | CCCc1nn(C)c2ccc(Nc3nc(N[C@H](CC4CC4)[C@H](C)N)c(F)cc3C(N)=O)cc12 [Example 006-464, 6-(((2R,3S)-3-amino-1-cyclopropylbutan-2-yl)amino)-5-fluoro-2-((1-methyl-3-propyl-1H-indazol-5-yl)amino)nicotinamide] | < 10 nM | 65 to 130 nM
9 | CCn1nc(C(C)C)c2cc(Nc3nc(N[C@H](CC4CC4)[C@H](C)N)c(F)cc3C(N)=O)ccc21 [Example 006-465, 6-(((2R,3S)-3-amino-1-cyclopropylbutan-2-yl)amino)-2-((1-ethyl-3-isopropyl-1H-indazol-5-yl)amino)-5-fluoronicotinamide] | < 10 nM | 130 to 200 nM
10 | NC(=O)c1cc(F)c(N[C@@H]2CCCC[C@@H]2N)nc1Nc1cnc(N2CCOCC2)c(Cl)c1 [Example 006-466, 6-(((1R,2S)-2-aminocyclohexyl)amino)-2-((5-chloro-6-morpholinopyridin-3-yl)amino)-5-fluoronicotinamide] | 10 to 50 nM | 65 to 130 nM
11 | CCn1ncc2cc(Nc3nc(N[C@H](COC)[C@H](C)N)c(F)cc3C(N)=O)ccc21 [Example 006-469, 6-(((2S,3S)-3-amino-1-methoxybutan-2-yl)amino)-2-((1-ethyl-1H-indazol-5-yl)amino)-5-fluoronicotinamide] | < 10 nM | < 65 nM
12 | COC[C@@H](Nc1nc(Nc2ccnc(OC)c2)c(C(N)=O)cc1F)[C@H](C)N [Example 006-470, 6-(((2S,3S)-3-amino-1-methoxybutan-2-yl)amino)-5-fluoro-2-((2-methoxypyridin-4-yl)amino)nicotinamide] | 10 to 50 nM | 65 to 130 nM
